Regarding `O=C(Nc1ccc2cc(CN3CCC(CO)CC3)cnc2c1)c1ccc(-c2ccc(F)cc2)cc1` [Example 45, 4′-fluoro-N-(3-{[4-(hydroxymethyl)-1-piperidinyl]methyl}-7-quinolinyl)[1,1′-biphenyl]-4-carboxamide], the melting point lay in the range of 191 to 195 °C.
`O=C(Nc1ccc2cc(CN3CCC(CCO)CC3)cnc2c1)c1ccc(-c2ccc(F)cc2)cc1` [Example 46, 4′-fluoro-N-(3-{[4-(2-hydroxyethyl)-1-piperidinyl]methyl}-7-quinolinyl)[1,1′-biphenyl]-4-carboxamide] gave a melting point of 193 to 196 °C.
With `CCNC(=O)CCCC1CCN(Cc2cnc3cc(NC(=O)c4ccc(-c5ccc(F)cc5)cc4)ccc3c2)CC1` [Example 47, N-[3-({4-[4-(ethylamino)-4-oxobutyl]-1-piperidinyl}methyl)-7-quinolinyl]-4′-fluoro[1,1′-biphenyl]-4-carboxamide] the figure was 209 to 213 °C.
In turn, `CCNC(=O)COC1CCN(Cc2cnc3cc(NC(=O)c4ccc(-c5ccc(F)cc5)cc4)ccc3c2)CC1` [Example 48, N-[3-({4-[2-(ethylamino)-2-oxoethoxy]-1-piperidinyl}methyl)-7-quinolinyl]-4′-fluoro[1,1′-biphenyl]-4-carboxamide] registered a melting point of 228 to 230 °C.
The compound `O=C(Nc1cc2ncc(CN3CCCC3)cc2cc1F)c1ccc(-c2ccc(F)cc2)cc1` [Example 50, 4′-fluoro-N-[6-fluoro-3-(1-pyrrolidinylmethyl)-7-quinolinyl][1,1′-biphenyl]-4-carboxamide] gave a melting point of 198 to 200 °C.
In the case of `O=C(Nc1cc2ncc(CN3CCCC3)cc2cc1F)c1ccc(-c2ccc(Cl)cc2)cc1` [Example 51, 4′-chloro-N-[6-fluoro-3-(1-pyrrolidinylmethyl)-7-quinolinyl][1,1′-biphenyl]-4-carboxamide], the melting point is 218 to 220 °C.
`O=C(Nc1cc2ncc(CN3CCCC3)cc2cc1F)c1ccc(-c2ccccc2)cc1` [Example 52, N-[6-fluoro-3-(1-pyrrolidinylmethyl)-7-quinolinyl][1,1′-biphenyl]-4-carboxamide] came in with a melting point of 206 to 208 °C.
In turn, `COc1ccc(-c2ccc(C(=O)Nc3cc4ncc(CN5CCCC5)cc4cc3F)cc2)cc1` [Example 53, N-[6-fluoro-3-(1-pyrrolidinylmethyl)-7-quinolinyl]-4′-methoxy[1,1′-biphenyl]-4-carboxamide] gave a melting point of 184 to 186 °C.
On to `Cc1ccc(-c2ccc(C(=O)Nc3cc4ncc(CN5CCCC5)cc4cc3F)cc2)cc1` [Example 54, N-[6-fluoro-3-(1-pyrrolidinylmethyl)-7-quinolinyl]-4′-methyl[1,1′-biphenyl]-4-carboxamide], for which the melting point is 202 to 204 °C.
Regarding `O=C(Nc1cc2ncc(CN3CCCC3)cc2cc1F)c1ccc(-c2ccc(C(F)(F)F)cc2)cc1` [Example 55, N-[6-fluoro-3-(1-pyrrolidinylmethyl)-7-quinolinyl]-4′-(trifluoromethyl)[1,1′-biphenyl]-4-carboxamide], the melting point is 209 to 212 °C.
With `O=C(Nc1cc2ncc(CN3CCCC3)cc2cc1F)c1ccc(-c2ccc(OC(F)(F)F)cc2)cc1` [Example 56, N-[6-fluoro-3-(1-pyrrolidinylmethyl)-7-quinolinyl]-4′-(trifluoromethoxy)[1,1′-biphenyl]-4-carboxamide] the figure was 184 to 187 °C; with `O=C(Nc1cc2ncc(CN3CCCC3)cc2cc1F)c1ccc(-c2ccccc2)cc1F` [Example 58, 3-fluoro-N-[6-fluoro-3-(1-pyrrolidinylmethyl)-7-quinolinyl][1,1′-biphenyl]-4-carboxamide], 163 to 164 °C.
As to `COc1ccc(-c2ccc(C(=O)Nc3cc4ncc(CN5CCCC5)cc4cc3F)c(F)c2)cc1` [Example 59, 3-fluoro-N-[6-fluoro-3-(1-pyrrolidinylmethyl)-7-quinolinyl]-4′-methoxy[1,1′-biphenyl]-4-carboxamide], the melting point was 174 to 176 °C.
Turning to `O=C(Nc1cc2ncc(CN3CCCC3)cc2cc1F)c1ccc(-c2ccc(F)cc2)cc1F` [Example 60, 3,4′-difluoro-N-[6-fluoro-3-(1-pyrrolidinylmethyl)-7-quinolinyl][1,1′-biphenyl]-4-carboxamide], the melting point is 200 to 202 °C.
Compound `Cc1ccc(-c2ccc(C(=O)Nc3cc4ncc(CN5CCCC5)cc4cc3F)c(F)c2)cc1` [Example 61, 3-fluoro-N-[6-fluoro-3-(1-pyrrolidinylmethyl)-7-quinolinyl]-4′-methyl[1,1′-biphenyl]-4-carboxamide] came in with a melting point of 179 to 181 °C.
With `O=C(Nc1cc2ncc(CN3CCCC3)cc2cc1F)c1ccc(-c2ccc(Cl)cc2)cc1F` [Example 62, 4′-chloro-3-fluoro-N-[6-fluoro-3-(1-pyrrolidinylmethyl)-7-quinolinyl][1,1′-biphenyl]-4-carboxamide] the figure was 217 to 219 °C; with `O=C(Nc1cc2ncc(CN3CCCC3)cc2cc1N1CCCC1)c1ccc(Br)cc1` [Example 63, 4-bromo-N-[6-(1-pyrrolidinyl)-3-(1-pyrrolidinylmethyl)-7-quinolinyl]benzamide], 171 to 173 °C; with `O=C(Nc1cc2ncc(CN3CCCC3)cc2cc1N1CCCC1)c1ccc(-c2ccc(F)cc2)cc1` [Example 64, 4′-fluoro-N-[6-(1-pyrrolidinyl)-3-(1-pyrrolidinylmethyl)-7-quinolinyl][1,1′-biphenyl]-4-carboxamide], 182 to 184 °C.
With `COc1ccc(-c2ccc(C(=O)Nc3cc4ncc(CN5CCCC5)cc4cc3Cl)cc2)cc1` [Example 67, N-[6-chloro-3-(1-pyrrolidinylmethyl)-7-quinolinyl]-4′-methoxy-[1,1′-biphenyl]-4-carboxamide] the figure was 184 °C; with `O=C(Nc1cc2ncc(CN3CCCC3)cc2cc1Cl)c1ccc(-c2cc3ccccc3o2)cc1` [Example 68, 4-(1-benzofuran-2-yl)-N-[6-chloro-3-(1-pyrrolidinylmethyl)-7-quinolinyl]benzamide], 209 °C.
In turn, `O=C(Nc1cc2ncc(CN3CCCC3)cc2cc1Cl)c1ccc(-c2ccc(Cl)s2)cc1` [Example 69, N-[6-chloro-3-(1-pyrrolidinylmethyl)-7-quinolinyl]-4-(5-chlorothien-2-yl)benzamide] showed a melting point of 185 °C.
Compound `O=C(Nc1ccc2cc(CN3CCCC3)cnc2c1F)c1ccc(-c2ccccc2)cc1` [Example 71, N-[8-fluoro-3-(1-pyrrolidinylmethyl)-7-quinolinyl][1,1′-biphenyl]-4-carboxamide] displayed a melting point of 186 to 188 °C.
Compound `COc1ccc(-c2ccc(C(=O)Nc3ccc4cc(CN5CCCC5)cnc4c3F)cc2)cc1` [Example 72, N-[8-fluoro-3-(1-pyrrolidinylmethyl)-7-quinolinyl]-4′-methoxy[1,1′-biphenyl]-4-carboxamide] had a melting point of 217 to 220 °C.
`O=C(Nc1ccc2cc(CN3CCCC3)cnc2c1F)c1ccc(-c2ccc(F)cc2)cc1` [Example 73, 4′-fluoro-N-[8-fluoro-3-(1-pyrrolidinylmethyl)-7-quinolinyl][1,1′-biphenyl]-4-carboxamide] registered a melting point of 178 °C.
`Cc1ccc(-c2ccc(C(=O)Nc3ccc4cc(CN5CCCC5)cnc4c3F)cc2)cc1` [Example 74, N-[8-fluoro-3-(1-pyrrolidinylmethyl)-7-quinolinyl]-4′-methyl[1,1′-biphenyl]-4-carboxamide] had a melting point of 210 to 213 °C.
With `O=C(Nc1ccc2cc(CN3CCCC3)cnc2c1F)c1ccc(-c2ccc(Cl)cc2)cc1` [Example 75, 4′-chloro-N-[8-fluoro-3-(1-pyrrolidinylmethyl)-7-quinolinyl][1,1′-biphenyl]-4-carboxamide] the figure was 206 to 208 °C; with `O=C(Nc1ccc2cc(CN3CCCC3)cnc2c1F)c1ccc(-c2ccccc2)cc1F` [Example 77, 3-fluoro-N-[8-fluoro-3-(1-pyrrolidinylmethyl)-7-quinolinyl][1,1′-biphenyl]-4-carboxamide], 136 to 137 °C; with `COc1ccc(-c2ccc(C(=O)Nc3ccc4cc(CN5CCCC5)cnc4c3F)c(F)c2)cc1` [Example 79, 3-fluoro-N-[8-fluoro-3-(1-pyrrolidinylmethyl)-7-quinolinyl]-4′-methoxy[1,1′-biphenyl]-4-carboxamide], 182 to 183 °C.
Next, `COc1c(NC(=O)c2ccc(-c3ccc(F)cc3)cc2)ccc2cc(CN3CCCC3)cnc12` [Example 81, 4′-fluoro-N-[8-methoxy-3-(1-pyrrolidinylmethyl)-7-quinolinyl][1,1′-biphenyl]-4-carboxamide]: 142 to 144 °C.
With `CCc1c(NC(=O)c2ccc(-c3ccc(F)cc3)cc2)ccc2cc(CN3CCCC3)cnc12` [Example 83, N-[8-ethyl-3-(1-pyrrolidinylmethyl)-7-quinolinyl]-4′-fluoro[1,1′-biphenyl]-4-carboxamide], the melting point was 266 to 267 °C.
In the case of `O=C(Nc1ccc2cc(CN3CCCC3)cnc2c1)c1ccc(-c2ccc(Cl)cc2)cc1F` [Example 85, 4′-chloro-3-fluoro-N-[3-(1-pyrrolidinylmethyl)-7-quinolinyl][1,1′-biphenyl]-4-carboxamide], the melting point is 232 °C.
`O=C(Nc1ccc2cc(CN3CCCC3)cnc2c1)c1ccc(-c2ccc(F)cc2)cc1F` [Example 86] came in with a melting point of 177 °C.
Next, `COc1ccc(-c2ccc(C(=O)Nc3ccc4cc(CN5CCCC5)cnc4c3)c(F)c2)cc1` [Example 87, 3-fluoro-4′-methoxy-N-[3-(1-pyrrolidinylmethyl)-7-quinolinyl][1,1′-biphenyl]-4-carboxamide]: 174 °C.
Next, `O=C(Nc1ccc2cc(CN3CCCC3)cnc2c1)c1ccc(-c2ccccc2)cc1F` [Example 88, 3-fluoro-N-[3-(1-pyrrolidinylmethyl)-7-quinolinyl][1,1′-biphenyl]-4-carboxamide]: 166 °C; `O=C(Nc1ccc2cc(CN3CCC(CCO)CC3)cnc2c1)c1ccc(-c2ccc(Cl)cc2)cc1` [Example 89, 4′-chloro-N-(3-{[4-(2-hydroxyethyl)-1-piperidinyl]methyl}-7-quinolinyl)-[1,1′-biphenyl]-4-carboxamide]: 204 °C.

The term melting point denotes the temperature, or range, at which the solid turns liquid.

The values above are taken from patent US7183415B2, “Quinoline compound” (Takeda Pharmaceutical Company Limited, priority 2001, dated 2007).
